Measured values: patent US8541460B2, “PDK-1/Akt signaling inhibitors” (The Ohio State University, priority 2003, dated 2013)

Experiments:
[1] = tested on: T-47D; assay: NCI DTP cell line screen (SRB), Breast Cancer; format: cell-based
Description: (§1) Screening of compounds 70 and 71 against several cancer cell lines The human tumor cell lines of the cancer screening panel are grown in RPMI 1640 medium containing 5% fetal bovine serum and 2 mM L-glutamine. For a typical screening experiment, cells are inoculated into 96 well microtiter plates in 100 μL at plating densities ranging from 5,000 to 40,000 cells/well depending on the doubling time of individual cell lines. After cell inoculation, the microtiter plates are incubated at 37° C., 5% CO2, 95% air and 100% relative humidity for 24 h prior to addition of experimental drugs.
(§2) After 24 h, two plates of each cell line are fixed in situ with TCA, to represent a measurement of the cell population for each cell line at the time of drug addition (Tz). Experimental drugs are solubilized in dimethyl sulfoxide at 400-fold the desired final maximum test concentration and stored frozen prior to use. At the time of drug addition, an aliquot of frozen concentrate is thawed and diluted to twice the desired final maximum test concentration with complete medium containing 50 μg/ml gentamicin. Additional four, 10-fold or ½ log serial dilutions are made to provide a total of five drug concentrations plus control. Aliquots of 100 μl of these different drug dilutions are added to the appropriate microtiter wells already containing 100 μl of medium, resulting in the required final drug concentrations.
(§3) Following drug addition, the plates are incubated for an additional 48 h at 37° C., 5% CO2, 95% air, and 100% relative humidity. For adherent cells, the assay is terminated by the addition of cold TCA. Cells are fixed in situ by the gentle addition of 50 μl of cold 50% (w/v) TCA (final concentration, 10% TCA) and incubated for 60 minutes at 4° C. The supernatant is discarded, and the plates are washed five times with tap water and air dried. Sulforhodamine B (SRB) solution (100 μl) at 0.4% (w/v) in 1% acetic acid is added to each well, and plates are incubated for 10 minutes at room temperature. After staining, unbound dye is removed by washing five times with 1% acetic acid and the plates are air dried. Bound stain is subsequently solubilized with 10 mM trizma base, and the absorbance is read on an automated plate reader at a wavelength of 515 nm. For suspension cells, the methodology is the same except that the assay is terminated by fixing settled cells at the bottom of the wells by gently adding 50 μl of 80% TCA (final concentration, 16% TCA). Using the seven absorbance measurements [time zero, (Tz), control growth, (C), and test growth in the presence of drug at the five concentration levels (Ti)], the percentage growth is calculated at each of the drug concentrations levels. Percentage growth inhibition is calculated as: [(Ti−Tz)/(C−Tz)]×100 for concentrations for which Ti>/=Tz [(Ti−Tz)/Tz]×100 for concentrations for which Ti<Tz
(§4) Three dose response parameters are calculated for each experimental agent. […] The drug concentration resulting in total growth inhibition (TGI) is calculated from Ti=Tz. […] Values are calculated for each of these three parameters if the level of activity is reached; however, if the effect is not reached or is exceeded, the value for that parameter is expressed as greater or less than the maximum or minimum concentration tested.
(§5) The methods described were used to test compounds 70 and 71 on a panel of sixty cell lines under a screening service provided by the Developmental Therapeutics Program at the National Institutes of Health. Shown in FIG. 1C are 1, RPMI-8226 leukemia cells; 2; NCI-H322M non-small cell lung cancer cells; 3, HT29 colon cancer cells; 4, U251 CNS cancer cells; 5, SK-MEL-28 melanoma cancer cells; 6, SK-OV-3 ovarian cancer cells; 7, RXF 393 renal cancer cells; 8, PC-3 prostate cancer cells; 9, MDA-MB-231 breast cancer cells.

[2] = tested on: NCI/ADR-RES; assay: NCI DTP cell line screen (SRB), Breast Cancer; format: cell-based
Description: as §1, §2, §3, §4, §5

[3] = tested on: HS 578T; assay: NCI DTP cell line screen (SRB), Breast Cancer; format: cell-based; conditions: HS 578T
Description: as §1, §2, §3, §4, §5

[4] = tested on: MDA-MB-231/ATCC; assay: NCI DTP cell line screen (SRB), Breast Cancer; format: cell-based
Description: as §1, §2, §3, §4, §5

[5] = tested on: NCI-H522; assay: NCI DTP cell line screen (SRB), Non-Small Cell Lung Cancer; format: cell-based, human
Description: as §1, §2, §3, §4, §5

[6] = tested on: COLO 205; assay: NCI DTP cell line screen (SRB), Colon Cancer; format: cell-based, human
Description: as §1, §2, §3, §4, §5

[7] = tested on: sixty human tumor cell lines; assay: NCI DTP screen, means over sixty human tumor cell lines; format: cell-based; conditions: two-day treatment
Description: as §1, §2
Following drug addition, the plates are incubated for an additional 48 h at 37° C., 5% CO2, 95% air, and 100% relative humidity. For adherent cells, the assay is terminated by the addition of cold TCA. Cells are fixed in situ by the gentle addition of 50 μl of cold 50% (w/v) TCA (final concentration, 10% TCA) and incubated for 60 minutes at 4° C. […] Bound stain is subsequently solubilized with 10 mM trizma base, and the absorbance is read on an automated plate reader at a wavelength of 515 nm. […] Using the seven absorbance measurements [time zero, (Tz), control growth, (C), and test growth in the presence of drug at the five concentration levels (Ti)], the percentage growth is calculated at each of the drug concentrations levels. Percentage growth inhibition is calculated as: [(Ti−Tz)/(C−Tz)]×100 for concentrations for which Ti>/=Tz [(Ti−Tz)/Tz]×100 for concentrations for which Ti<Tz
as §4, with “tested. […]” for “tested.”

[8] = tested on: SK-MEL-5; assay: NCI DTP cell line screen (SRB), Melanoma; format: cell-based, human
Description: as §1, §2, §3, §4, §5

[9] = tested on: CCRF-CEM; assay: NCI DTP cell line screen (SRB), Leukemia; format: cell-based
[10] = read-out: LC50 (the source's name)

In the case of `N=C(N)Nc1ccc(-n2nc(C(F)(F)F)cc2-c2ccc3c(ccc4ccccc43)c2)cc1` [Compound 71, 4-[5-(2-Phenanthrenyl)-3-(trifluoromethyl)-1H-pyrazol-1-yl]-phenyl-guanidine], the GI50 [1] is reported as under 10 nM, the TGI [1] is reported as 1.98E−06 and the “Mean Optical Densities” value ([1]; Log10 Concentration −4.0) is reported as 0.198. The “Percent Growth” value ([1]; Log10 Concentration −4.0) was −53%, the “Mean Optical Densities” value ([1]; Log10 Concentration −5.0) was 0.100 and the “Percent Growth” value ([1]; Log10 Concentration −5.0) was −76%. For the same compound, the “Mean Optical Densities” value ([1]; Log10 Concentration −6.0) was 0.529, the “Percent Growth” value ([1]; Log10 Concentration −6.0) was 32% and the “Mean Optical Densities” value ([1]; Log10 Concentration −7.0) was 0.578. The “Percent Growth” value ([1]; Log10 Concentration −7.0) was 47%, the “Mean Optical Densities” value ([1]; Log10 Concentration −8.0) was 0.541 and the “Percent Growth” value ([1]; Log10 Concentration −8.0) was 36%. It also gave a CC50 [1, 10] of 5720 nM, a GI50 [2] of 2640 nM and a TGI [2] of 7.73E−06. For the same compound, the “Mean Optical Densities” value ([2]; Log10 Concentration −4.0) was 0.294, the “Percent Growth” value ([2]; Log10 Concentration −4.0) was −47% and the “Mean Optical Densities” value ([2]; Log10 Concentration −5.0) was 0.490. For the same compound, the “Percent Growth” value ([2]; Log10 Concentration −5.0) was −12%, the “Mean Optical Densities” value ([2]; Log10 Concentration −6.0) was 1.874 and the “Percent Growth” value ([2]; Log10 Concentration −6.0) was 95%. The “Mean Optical Densities” value ([2]; Log10 Concentration −7.0) was 1.882, the “Percent Growth” value ([2]; Log10 Concentration −7.0) was 96% and the “Mean Optical Densities” value ([2]; Log10 Concentration −8.0) was 1.920. For the same compound, the “Percent Growth” value ([2]; Log10 Concentration −8.0) was 98%, the CC50 [2, 10] was over 100000 nM and the GI50 [3] was 1860 nM. For the same compound, the TGI [3] was 3.78E−06, the “Mean Optical Densities” value ([3]; Log10 Concentration −4.0) was 0.333 and the “Percent Growth” value ([3]; Log10 Concentration −4.0) was −38%. The “Mean Optical Densities” value ([3]; Log10 Concentration −5.0) was 0.168, the “Percent Growth” value ([3]; Log10 Concentration −5.0) was −69% and the “Mean Optical Densities” value ([3]; Log10 Concentration −6.0) was 1.127. The “Percent Growth” value ([3]; Log10 Concentration −6.0) was 94%, the “Mean Optical Densities” value ([3]; Log10 Concentration −7.0) was 1.165 and the “Percent Growth” value ([3]; Log10 Concentration −7.0) was 100%. The “Mean Optical Densities” value ([3]; Log10 Concentration −8.0) was 1.099, the “Percent Growth” value ([3]; Log10 Concentration −8.0) was 89% and the TGI [4] was 1.66E−06. The “Mean Optical Densities” value ([4]; Log10 Concentration −4.0) was 0.389, the “Percent Growth” value ([4]; Log10 Concentration −4.0) was −39% and the “Mean Optical Densities” value ([4]; Log10 Concentration −5.0) was 0.015. The “Percent Growth” value ([4]; Log10 Concentration −5.0) was −98%, the “Mean Optical Densities” value ([4]; Log10 Concentration −6.0) was 0.709 and the “Percent Growth” value ([4]; Log10 Concentration −6.0) was 27%. The “Mean Optical Densities” value ([4]; Log10 Concentration −7.0) was 0.830, the “Percent Growth” value ([4]; Log10 Concentration −7.0) was 78% and the “Mean Optical Densities” value ([4]; Log10 Concentration −8.0) was 0.756. The “Percent Growth” value ([4]; Log10 Concentration −8.0) was 47%, the GI50 [5] was 1450 nM and the “Mean Optical Densities” value ([5]; Log10 Concentration −4.0) was 0.439. The “Percent Growth” value ([5]; Log10 Concentration −4.0) was −43%, the “Mean Optical Densities” value ([5]; Log10 Concentration −5.0) was 0.037 and the “Percent Growth” value ([5]; Log10 Concentration −5.0) was −95%. The “Mean Optical Densities” value ([5]; Log10 Concentration −6.0) was 1.471, the “Percent Growth” value ([5]; Log10 Concentration −6.0) was 78% and the “Mean Optical Densities” value ([5]; Log10 Concentration −7.0) was 1.558. For the same compound, the “Percent Growth” value ([5]; Log10 Concentration −7.0) was 87%, the “Mean Optical Densities” value ([5]; Log10 Concentration −8.0) was 1.509 and the “Percent Growth” value ([5]; Log10 Concentration −8.0) was 82%. For the same compound, the TGI ([5]; in M (unit assumed)) was 2.82E−06, the GI50 [6] was 1360 nM and the TGI [6] was 2.69E−06. For the same compound, the “Mean Optical Densities” value ([6]; Log10 Concentration −4.0) was 0.151, the “Percent Growth” value ([6]; Log10 Concentration −4.0) was −32% and the “Mean Optical Densities” value ([6]; Log10 Concentration −5.0) was 0.009. For the same compound, the “Percent Growth” value ([6]; Log10 Concentration −5.0) was −96%, the “Mean Optical Densities” value ([6]; Log10 Concentration −6.0) was 0.930 and the “Percent Growth” value ([6]; Log10 Concentration −6.0) was 73%. The “Mean Optical Densities” value ([6]; Log10 Concentration −7.0) was 1.028, the “Percent Growth” value ([6]; Log10 Concentration −7.0) was 83% and the “Mean Optical Densities” value ([6]; Log10 Concentration −8.0) was 1.146. For the same compound, the “Percent Growth” value ([6]; Log10 Concentration −8.0) was 95%, the “mean TGI among the sixty cell lines” value [7] was 2900 nM and the GI50 ([7]; read-out: mean GI50 among the sixty cell lines) was 1200 nM. For the same compound, the CC50 ([7]; read-out: mean LC50 among the sixty cell lines) was 8500 nM, the GI50 [8] was 2220 nM and the “Mean Optical Densities” value ([8]; Log10 Concentration −4.0) was 0.363. The “Percent Growth” value ([8]; Log10 Concentration −4.0) was −34%, the “Mean Optical Densities” value ([8]; Log10 Concentration −5.0) was 0.143 and the “Percent Growth” value ([8]; Log10 Concentration −5.0) was −74%. The “Mean Optical Densities” value ([8]; Log10 Concentration −6.0) was 1.812, the “Percent Growth” value ([8]; Log10 Concentration −6.0) was 116% and the “Mean Optical Densities” value ([8]; Log10 Concentration −7.0) was 1.762. The “Percent Growth” value ([8]; Log10 Concentration −7.0) was 111%, the “Mean Optical Densities” value ([8]; Log10 Concentration −8.0) was 1.611 and the “Percent Growth” value ([8]; Log10 Concentration −8.0) was 97%. The TGI ([8]; in M (unit assumed)) was 4.07E−06, the GI50 [9] was 1230 nM and the TGI [9] was 2.48E−06. For the same compound, the “Mean Optical Densities” value ([9]; Log10 Concentration −4.0) was 0.140, the “Percent Growth” value ([9]; Log10 Concentration −4.0) was −53% and the “Mean Optical Densities” value ([9]; Log10 Concentration −5.0) was 0.002. The “Percent Growth” value ([9]; Log10 Concentration −5.0) was −99%, the “Mean Optical Densities” value ([9]; Log10 Concentration −6.0) was 0.718 and the “Percent Growth” value ([9]; Log10 Concentration −6.0) was 65%. For the same compound, the “Mean Optical Densities” value ([9]; Log10 Concentration −7.0) was 0.811, the “Percent Growth” value ([9]; Log10 Concentration −7.0) was 79% and the “Mean Optical Densities” value ([9]; Log10 Concentration −8.0) was 0.808. The “Percent Growth” value ([9]; Log10 Concentration −8.0) was 78% and the CC50 [9, 10] was 5000 nM.
